# Reference: US11679103B2, “Multi-targeting agents for Alzheimer's disease therapy” (The Regents of the University of California, priority 2018, dated 2023)
# Experiments:
# Aβ amyloid plaques = assay: [3H]PIB competition autoradiography in postmortem human AD frontal cortex slices; format: binding; details: for GM/WM ratio of [3H]PIB binding: human AD frontal cortex; for effect on [3H]PIB binding level: GM and WM; for effect on [3H]PIB binding: 1 μM; for displacement of [3H]PIB (words, discussion): FIG. 10 and 11
# Experimental: Post-mortem human AD frontal cortex sections (10 μm thick; human brain tissue obtained from Banner Sun Health Research Institute, Sun City, Ariz.) were preincubated in 10% alcohol PBS buffer for 10 minutes. The brain sections were placed in a glass chamber and incubated with [^3H]PIB (2 μCi/cc) in 10% alcohol PBS buffer, pH 7.4 at 37° C. for 1 h. The slices were then washed with cold 10% alcohol PBS buffer (2×3 mins), cold deionized water 1 min, respectively. The brain sections were air dried, exposed overnight on a phosphor film, and then placed on the Phosphor Autoradiographic Imaging System/Cyclone Storage Phosphor System (Packard Instruments Co). Regions of interest (ROIs) were drawn on the slices and the extent of binding of [^3H]PIB was measured with DLU/mm^2 using the OptiQuant acquisition and analysis program (Packard Instruments Co).
# The Aβ plaque-α4β2* nAChR multi-agent was tested for binding to Aβ amyloid plaques in human postmortem AD brain frontal cortex slices labeled with [^3H]PIB (75-90 year olds, Braak score V-VI).
# α4β2* nAChRs = α4β2* nAChRs (Rattus norvegicus, UniProt P09483+P12390); details: rat brain slices; for displacement of [3H]cytisine: 100 nM
# Chain of α4β2* nAChRs (P09483 31-630): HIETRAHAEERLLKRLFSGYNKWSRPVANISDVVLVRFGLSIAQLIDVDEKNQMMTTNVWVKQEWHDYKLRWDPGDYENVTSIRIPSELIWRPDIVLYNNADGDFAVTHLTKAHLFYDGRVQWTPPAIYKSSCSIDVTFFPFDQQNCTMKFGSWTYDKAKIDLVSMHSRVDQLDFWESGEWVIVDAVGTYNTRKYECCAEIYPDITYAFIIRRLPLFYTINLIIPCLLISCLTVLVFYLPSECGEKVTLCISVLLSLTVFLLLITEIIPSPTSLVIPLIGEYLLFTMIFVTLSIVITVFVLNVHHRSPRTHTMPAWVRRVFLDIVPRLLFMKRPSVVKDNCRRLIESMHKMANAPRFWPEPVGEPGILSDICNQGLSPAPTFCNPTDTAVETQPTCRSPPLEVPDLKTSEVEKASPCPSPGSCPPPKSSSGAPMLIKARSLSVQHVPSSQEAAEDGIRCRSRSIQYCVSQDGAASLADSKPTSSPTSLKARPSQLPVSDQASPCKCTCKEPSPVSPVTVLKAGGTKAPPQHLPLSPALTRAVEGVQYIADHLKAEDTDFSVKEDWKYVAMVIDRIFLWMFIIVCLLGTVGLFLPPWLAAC
# Chain of α4β2* nAChRs (P12390 25-500): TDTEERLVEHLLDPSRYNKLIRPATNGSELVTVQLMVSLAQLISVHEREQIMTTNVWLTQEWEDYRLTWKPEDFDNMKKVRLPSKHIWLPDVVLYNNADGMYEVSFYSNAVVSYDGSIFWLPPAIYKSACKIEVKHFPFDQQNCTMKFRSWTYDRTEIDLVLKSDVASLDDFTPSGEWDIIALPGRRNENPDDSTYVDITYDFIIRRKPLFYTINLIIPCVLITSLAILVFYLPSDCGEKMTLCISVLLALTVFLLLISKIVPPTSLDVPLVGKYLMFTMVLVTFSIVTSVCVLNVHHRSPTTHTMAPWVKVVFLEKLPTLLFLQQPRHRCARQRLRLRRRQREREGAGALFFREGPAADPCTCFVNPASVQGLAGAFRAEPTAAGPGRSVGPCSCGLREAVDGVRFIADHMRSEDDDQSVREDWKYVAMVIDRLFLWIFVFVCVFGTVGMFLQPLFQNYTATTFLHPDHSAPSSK
# Experimental: In Vitro Studies: Ex vivo rat brain slices were prepared at 10 μm thick using a Leica 1850 cryotome and used for [^3H]cytisine binding. […] The apposed phosphor screens were read and analyzed by OptiQuant acquisition and analysis program of the Cyclone Storage Phosphor System (Packard Instruments Co., Boston, Mass.). Region-of-interest of same size were drawn and analyzed on brain regions using OptiQuant software and binding of [^3H]cytisine measured in Digital Light Units/mm^2 (DLU/mm^2). Data was analyzed using following procedure: (a) the non-specific binding of [^3H]cytisine was subtracted for all samples; (b) the specific binding was normalized to 100% (no competitive ligand) and (c) the binding isotherms were fit to the Hill equation (KELL BioSoft software (v 6), Cambridge, U.K.).
# Nicotinic receptor binding: The Aβ plaque-α4β2* nAChR multi-agents were tested for their affinity to the α4β2* nAChRs using rat brain slices labeled with [^3H]cytisine. […] Three brain regions analyzed included thalamus, frontal cortex and subiculum.
# Amyloid β = biological target: T1, Amyloid β (Homo sapiens, UniProt P05067); details: cited from earlier work
# T1 construct: host or cells: AD patients (clinical trials)
# [1] = 10 μM test agent, control GM/WM approx. 3
# [2] = 1 μM test agent, control GM/WM approx. 2
Compound,GM/WM ratio of [3H]PIB binding (Aβ amyloid plaques; [1]),effect on [3H]PIB binding level (Aβ amyloid plaques; 10 μM),effect on [3H]PIB binding (Aβ amyloid plaques),GM/WM ratio of [3H]PIB binding (Aβ amyloid plaques; [2]),"displacement of [3H]PIB (words, discussion) (Aβ amyloid plaques; human frontal cortex)",other results
Fexofenadine-(3-methoxy-4-(1′-aminobutyryloxy)cinnamic acid [KD003],2.4,higher levels,,,,
5-(3-methoxy-4-propyloxycinnamate)-3-(2-(S)-pyrrolidinylmethoxy)pyridine [GKS-007],,,some inhibitory effect,no significant GM/WM ratio reduction,,displacement of [3H]cytisine (α4β2* nAChRs): Displacement of significant amounts; affinity at α4β2* nAChR sites (α4β2* nAChRs): high affinity
5-(3′-Ethyl 3-methoxy-4-propyloxycinnamate)-3-(2-(S)-pyrrolidinylmethoxy)pyridine [GKS-006],,,,,,displacement of [3H]cytisine (α4β2* nAChRs): Displacement of significant amounts; affinity at α4β2* nAChR sites (α4β2* nAChRs): high affinity
Fexofenadine curcuminate [CUR-FEX],1.96,lower binding,,,largest displacement,"reduction of GM/WM ratio of [3H]PIB (Aβ amyloid plaques; human AD frontal cortex (FIG. 10, 10 μM)): 35%"
Solanezumab: anti-amyloid monoclonal antibody,,,,,,"Aβ plaque load measured by PET imaging, before vs after antibody treatment (Amyloid β; large clinical trials): did not change significantly; Outcome (clinical) (Amyloid β; mild to moderate AD subjects): Did not improve"
"COc1cc(/C=C/C(=O)O)ccc1O [FA, ferulic acid]",2,higher levels,did not significantly affect the binding,approx. 2,little displacement,
"CNc1ccc(N=Nc2ccc(N(C)C)cc2)cc1 [TAZA, N,N,N′-trimethyl-4,4′-azodianiline]",,,significant displacement,1.3,greater than observed by curcumin,
"COc1cc(/C=C/C(=O)CC(=O)/C=C/c2ccc(O)c(OC)c2)ccc1O [Curcumin, curcumin]",1.5,,,,significant displacement effect,"reduction of [3H]PIB binding (Aβ amyloid plaques; 10 μM, human frontal cortex): 50%"
